According to patent US20100266604A1, “USE OF TAM RECEPTOR INHIBITORS AS IMMUNOENHANCERS AND TAM ACTIVATORS AS IMMUNOSUPPRESSORS” (The Salk Institute for Biological Studies, priority 2007, published 2010):

Columns and labels:
[1] = system: Axl mRNA and protein in DCs; assay: Axl expression in DCs (Q-PCR, FACS, Western blot); assay type: cell-based, mouse; conditions: for Axl expression by Western blot: WT DCs
Experimental: (§1) Splenic DCs (1×10^6 cells/ml) or BM-DCs (5×10^6 cells/ml) were cultured in serum-free medium and treated with the indicated concentrations of murine recombinant Gas6, murine recombinant Protein S, the TLR ligands indicated above, recombinant mouse IFNα (PBL Biomedical laboratories), recombinant mouse Axl-FC chimera (R&D), cyclohexamide (Sigma) or Actinomycin D (Sigma). Whole cell lysates and RNA extraction were performed as indicated below.
DCs were washed in PBS and harvested in NuPage LDS sample buffer (Invitrogen) with 100 μM DTT. Whole cell lysates were resolved by electrophoresis, proteins were transferred to a PVDF membrane (Immobilon P, Millipore), blocked in 3% BSA/TBS-Tween-20 and probed with the indicated antibodies. For fluorescent western blotting with the Odyssey system, proteins were transferred to an Immobilon-FL PVDF membrane (Millipore) and incubated with two primary antibodies in 0.1% casein/PBS-Tween-20. Following incubation with fluorescence-labeled secondary antibodies, membranes were scanned with the Odyssey imaging system (LI-COR).
(§2) After stimulation, cells were harvested, and total RNA was isolated using the RNeasy mini kit (Qiagen). Reverse transcription was performed according to manufacturer instructions with RT Superscript III (Invitrogen). PCR reactions were performed on an ABI Prism 7700 Sequence Detection System using SYBRGreen PCR master mix (Applied Biosystems). Each reaction was normalized against the expression of β-actin or GAPDH. Analyses of dissociation curves were performed with SDS software (Applied Biosystems) to ensure the absence of nonspecific amplification. Q-PCR primers used herein are listed below.
Cells were incubated for 15 minutes with a rat mAb to CD16/32 to block Fc receptors and then with primary antibodies for 20 minutes on ice. The following mAbs against murine molecules were used: allophycocyanin- and phycoerythrin-conjugated anti-CD11c, FITC-conjugated anti-MHC class I (H-2K^b) and anti-MHC class II (I-A^b), PerCP-Cy5.5-conjugated anti-CD3, anti-CD19 and anti-NK1.1 (all from BD Pharmingen). For Axl staining, cells were processed as described, fixed with 10% paraformaldehyde, permeabilized with Saponin (0.1%, Sigma), incubated with Axl (M-20) antibody for 30 minutes and then with anti-goat Cy5 antibody (Jackson ImmunoResearch). Fluorescent cells were acquired with a FacsSort flow cytometer (Becton Dickinson) and analyzed with FlowJo (Tree Star) software.

[2] = system: TLR-induced cytokine production in DCs; assay: DC activation assay: TLR-induced cytokine production (ELISA / ISRE luciferase reporter); assay type: cell-based, mouse; conditions: IFNα, 10 nM CpG, 15 hours, 3 nM ProS (FIG. 8A)
Experimental: Splenic DC or BM-DCs (1×10^6 cells/ml) were cultured overnight in serum-free medium (StemSpan, StemCell Technologies Inc.) in the presence of the indicated concentrations of LPS from Salmonella minnesota R595 Re (Alexis), CpG-ODN 1668 (TCCATGACGTTCCGATGCT; SEQ ID NO: 19; Integrated DNA Technologies) or Poly I:C (InvivoGen) alone or in the presence of murine recombinant Gas6 (R&D Systems) or murine recombinant Protein S (produced as described in Prasad et al., (2006) Mol Cell Neurosci 33:96-108). Cytokine production was quantified in cell-free supernatants by ELISA (ebioscience for IL-12, IL-6 and TNFα and PBL-biomedical for IFNα) or by a luciferase assay using a cell line containing an ISRE-responsive element luciferase reporter construct for Type I IFN (Jiang et al., (2005) Nat Immunol 6:565-570).

[3] = system: SOCS1 and SOCS3 mRNA in DCs; assay: Q-PCR of SOCS1 and SOCS3 mRNA in DCs; assay type: cell-based, mouse; conditions: for SOCS1 mRNA induction: 300 U/ml IFNα
Experimental: as §1, §2

[4] = system: IRF-7 and IFI-204 mRNA in DCs; assay: Q-PCR of IRF-7 and IFI-204 mRNA in DCs; assay type: cell-based, mouse; conditions: splenic DCs, 300 U/ml IFNα
Experimental: as §1, §2

[5] = biological target: TAM receptors (on mouse dendritic cells); assay: cell-based or functional assay
STAT1 = biological target: T1, STAT1 (mouse, UniProt P42225); assay: co-immunoprecipitation from BM-DC whole cell lysates, untreated (-) or treated 20 min with 50 nM Gas6 (+); IP with antibody to the IFN receptor R1 chain, immunoblot for STAT1
T1 construct: endogenous full-length protein in the cell lysate; also called total STAT1
T1 sequence (transcription factor, looked up): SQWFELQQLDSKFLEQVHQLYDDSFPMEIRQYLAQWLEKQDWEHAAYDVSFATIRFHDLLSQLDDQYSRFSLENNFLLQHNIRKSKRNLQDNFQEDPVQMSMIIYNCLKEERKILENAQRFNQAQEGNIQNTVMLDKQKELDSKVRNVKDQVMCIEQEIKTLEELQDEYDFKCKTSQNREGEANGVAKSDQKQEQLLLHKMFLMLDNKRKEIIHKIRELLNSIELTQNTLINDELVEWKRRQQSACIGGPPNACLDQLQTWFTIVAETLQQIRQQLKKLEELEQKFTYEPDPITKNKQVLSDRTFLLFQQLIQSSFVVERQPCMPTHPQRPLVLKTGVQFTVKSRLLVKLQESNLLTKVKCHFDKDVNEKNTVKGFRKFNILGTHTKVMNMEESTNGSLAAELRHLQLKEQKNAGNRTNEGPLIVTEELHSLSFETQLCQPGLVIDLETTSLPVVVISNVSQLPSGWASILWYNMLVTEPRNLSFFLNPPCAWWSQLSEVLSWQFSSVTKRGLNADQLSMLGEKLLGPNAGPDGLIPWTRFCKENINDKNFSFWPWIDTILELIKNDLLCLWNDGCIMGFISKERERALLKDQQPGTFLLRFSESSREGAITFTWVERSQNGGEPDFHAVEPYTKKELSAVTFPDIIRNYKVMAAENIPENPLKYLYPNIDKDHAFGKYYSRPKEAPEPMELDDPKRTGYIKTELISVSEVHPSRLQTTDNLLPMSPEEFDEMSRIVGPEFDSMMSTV

[6] = biological target: T2, Axl (mouse, endogenous in bone marrow-derived dendritic cells) (mouse, UniProt Q00993 19-888); assay: co-immunoprecipitation from BM-DC whole cell lysates, untreated (-) or treated 20 min with 50 nM Gas6 (+); IP with antibody to the IFN receptor R2 chain, immunoblot for Axl
T2 construct: whole, on cells; Endogenous protein co-immunoprecipitated from Triton X-100 lysates of mouse BM-DCs, not a recombinant construct; also called TAM receptor
T2 sequence (looked up): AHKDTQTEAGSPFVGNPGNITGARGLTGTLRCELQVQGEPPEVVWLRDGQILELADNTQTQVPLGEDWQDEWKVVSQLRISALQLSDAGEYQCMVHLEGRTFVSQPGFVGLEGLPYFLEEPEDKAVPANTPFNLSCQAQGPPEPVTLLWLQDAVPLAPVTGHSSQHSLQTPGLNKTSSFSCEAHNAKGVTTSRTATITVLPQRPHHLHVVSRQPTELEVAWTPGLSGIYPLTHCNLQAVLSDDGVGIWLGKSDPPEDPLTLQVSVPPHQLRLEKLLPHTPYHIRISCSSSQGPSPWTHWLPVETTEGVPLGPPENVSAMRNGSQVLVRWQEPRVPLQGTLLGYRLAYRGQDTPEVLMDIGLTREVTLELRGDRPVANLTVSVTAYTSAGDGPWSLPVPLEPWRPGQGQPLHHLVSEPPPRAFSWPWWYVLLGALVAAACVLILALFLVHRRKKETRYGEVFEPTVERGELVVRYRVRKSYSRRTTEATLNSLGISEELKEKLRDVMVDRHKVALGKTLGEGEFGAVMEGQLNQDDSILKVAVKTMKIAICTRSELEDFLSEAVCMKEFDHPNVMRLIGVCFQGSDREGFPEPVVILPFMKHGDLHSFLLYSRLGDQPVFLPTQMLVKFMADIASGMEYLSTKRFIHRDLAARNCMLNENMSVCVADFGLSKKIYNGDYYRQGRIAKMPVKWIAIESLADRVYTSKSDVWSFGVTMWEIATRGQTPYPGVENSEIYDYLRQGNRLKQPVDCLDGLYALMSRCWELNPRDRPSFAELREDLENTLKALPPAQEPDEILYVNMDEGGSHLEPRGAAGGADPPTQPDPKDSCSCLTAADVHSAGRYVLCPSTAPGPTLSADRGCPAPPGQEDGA

Q: How did the Axl induction ([1]; Ifnar−/− DCs) turn out when poly I:C was run?
A: lost

Q: What about the Axl induction ([1]; STAT1−/− DCs) of the same molecule?
A: lost

Q: What about the “Axl expression by Western blot” value [1] of the same molecule?
A: substantial up-regulation

Q: How did the “inhibiting TLR-induced cytokine production in WT DCs, compared with Gas6” value [2] turn out when “ProS: murine recombinant Protein S, the second agonist for TAM receptors” was run?
A: equally effective

Q: With IFNα as the molecule, how does the “SOCS1 mRNA expressed by TAM TKO DCs relative to WT DCs” value ([3]; IFN-treated, integrated over the 6-hour time course) read?
A: ~24%

Q: And the “SOCS1 mRNA induction” value ([3]; TAM TKO splenic DCs)?
A: significantly blunted

Q: What about the “SOCS1 mRNA induction” value ([3]; WT splenic DCs, 2 hours, sustained up to 6 hours) of the same molecule?
A: robust induction

Q: What about the Axl induction ([1]; STAT1−/− DCs) of the same molecule?
A: lost

Q: And the “Axl expression by Western blot” value [1]?
A: substantial up-regulation

Q: And the “IFNα-induced IRF-7 and IFI-204 mRNA levels, WT versus TAM TKO DCs” value [4]?
A: indistinguishable

Q: For “murine recombinant Gas6 (R&D Systems) (from UniProt Q61592 28-674) (ligand)”, which SOCS1 mRNA expression in BM-DCs (Q-PCR) after addition of 50 nM Gas6 [5] is on record?
A: 10 fold

Q: And the SOCS3 mRNA expression in BM-DCs (Q-PCR) after addition of 50 nM Gas6 [5]?
A: 10 fold

B1: R1 chain of the type I IFN receptor (mouse, endogenous in BM-DCs) (receptor, UniProt P33896 27-590, looked up)
chain: ENLKPPENIDVYIIDDNYTLKWSSHGESMGSVTFSAEYRTKDEAKWLKVPECQHTTTTKCEFSLLDTNVYIKTQFRVRAEEGNSTSSWNEVDPFIPFYTAHMSPPEVRLEAEDKAILVHISPPGQDGNMWALEKPSFSYTIRIWQKSSSDKKTINSTYYVEKIPELLPETTYCLEVKAIHPSLKKHSNYSTVQCISTTVANKMPVPGNLQVDAQGKSYVLKWDYIASADVLFRAQWLPGYSKSSSGSRSDKWKPIPTCANVQTTHCVFSQDTVYTGTFFLHVQASEGNHTSFWSEEKFIDSQKHILPPPPVITVTAMSDTLLVYVNCQDSTCDGLNYEIIFWENTSNTKISMEKDGPEFTLKNLQPLTVYCVQARVLFRALLNKTSNFSEKLCEKTRPGSFSTIWIITGLGVVFFSVMVLYALRSVWKYLCHVCFPPLKPPRSIDEFFSEPPSKNLVLLTAEEHTERCFIIENTDTVAVEVKHAPEEDLRKYSSQTSQDSGNYSNEEEESVGTESGQAVLSKAPCGGPCSVPSPPGTLEDGTCFLGNEKYLQSPALRTEPALLC
notes: whole, on cells; Endogenous protein immunoprecipitated from mouse BM-DC lysates; also called IFNAR1; IFN receptor R1 chain
Q: Does B1 bind (STAT1)?
A: no binding

B2: IFNAR2 (receptor, mouse, UniProt O35664 22-513, looked up)
receptor chain: SLETITPSAFDGYPDEPCTINITIRNSRLILSWELENKSGPPANYTLWYTVMSKDENLTKVKNCSDTTKSSCDVTDKWLEGMESYVVAIVIVHRGDLTVCRCSDYIVPANAPLEPPEFEIVGFTDHINVTMEFPPVTSKIIQEKMKTTPFVIKEQIGDSVRKKHEPKVNNVTGNFTFVLRDLLPKTNYCVSLYFDDDPAIKSPLKCIVLQPGQESGLSESAIVGITTSCLVVMVFVSTIVMLKRIGYICLKDNLPNVLNFRHFLTWIIPERSPSEAIDRLEIIPTNKKKRLWNYDYEDGSDSDEEVPTASVTGYTMHGLTGKPLQQTSDTSASPEDPLHEEDSGAEESDEAGAGAGAEPELPTEAGAGPSEDPTGPYERRKSVLEDSFPREDNSSMDEPGDNIIFNVNLNSVFLRVLHDEDASETLSLEEDTILLDEGPQRTESDLRIAGGDRTQPPLPSLPSQDLWTEDGSSEKSDTSDSDADVGDGYIMR
notes: endogenous full-length protein in the cell lysate; also called R2 chain of the type I IFN receptor; IFN receptor R2 chain
Q: Does B2 bind [6]?
A: no binding
